The first assay has as its target D(2) dopamine receptor (Rattus norvegicus, UniProt P61169). Briefly: Inhibitory concentration against Dopamine receptor D2 (Inactive at >1000 nM concentration).
Sequence of D(2) dopamine receptor (P61169 whole entry): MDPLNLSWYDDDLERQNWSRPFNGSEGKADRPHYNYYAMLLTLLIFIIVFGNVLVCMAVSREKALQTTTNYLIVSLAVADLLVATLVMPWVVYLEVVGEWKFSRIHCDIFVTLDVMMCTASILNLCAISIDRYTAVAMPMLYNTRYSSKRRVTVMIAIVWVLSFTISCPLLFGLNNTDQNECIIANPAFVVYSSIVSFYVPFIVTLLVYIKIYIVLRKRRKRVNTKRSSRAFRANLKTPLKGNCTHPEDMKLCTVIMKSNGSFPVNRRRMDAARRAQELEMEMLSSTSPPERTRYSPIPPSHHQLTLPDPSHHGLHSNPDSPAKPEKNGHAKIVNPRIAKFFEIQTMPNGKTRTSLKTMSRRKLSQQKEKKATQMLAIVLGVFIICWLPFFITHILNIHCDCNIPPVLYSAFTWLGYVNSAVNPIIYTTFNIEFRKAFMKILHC
As usually defined, the IC50 is the point on the concentration scale where inhibition reaches its midpoint. Low readings indicate inhibition by little substance, high ones a need for much substance. For `COc1cc2nc(N3CCN(C(=O)c4ccccc4)CC3)nc(N)c2cc1OC`, the 50% inhibitory concentration (IC50) is > 1000 nM.

Regarding `COc1cc2nc(N3CCN(C(=O)C(C)(C)C)CC3)nc(N)c2cc1OC`, the IC50 is > 1000 nM.

As for `COc1cc2nc(N3CCC(c4ccccc4)(c4ccccc4)CC3)nc(N)c2cc1OC`, the IC50 was > 1000 nM.

Take `COc1cc2nc(N(C)CCC(c3ccccc3)c3ccccc3)nc(N)c2cc1OC`: the IC50 is > 1000 nM.

For the molecule `COc1cc2nc(N[C@H](C)Cc3ccc(OC)c(S(N)(=O)=O)c3)nc(N)c2cc1OC`, the IC50 is > 1000 nM.

Take `COc1cc2nc(N3CC[N+]([O-])(Cc4ccccc4)CC3)nc(N)c2cc1OC`: the IC50 was > 1000 nM.

As to `COc1cc2nc(N3CCN(C(c4ccccc4)c4ccccc4)CC3)nc(N)c2cc1OC`, the IC50 is > 1000 nM.

On to `COc1cc2nc(N3CCN(C(C)=O)CC3)nc(N)c2cc1OC`, for which the IC50 was > 1000 nM.

The target of another assay is T1, Adrenergic receptor alpha-1 (Rattus norvegicus, UniProt P15823+P23944+P43140).
T1 sequence (P15823 whole entry): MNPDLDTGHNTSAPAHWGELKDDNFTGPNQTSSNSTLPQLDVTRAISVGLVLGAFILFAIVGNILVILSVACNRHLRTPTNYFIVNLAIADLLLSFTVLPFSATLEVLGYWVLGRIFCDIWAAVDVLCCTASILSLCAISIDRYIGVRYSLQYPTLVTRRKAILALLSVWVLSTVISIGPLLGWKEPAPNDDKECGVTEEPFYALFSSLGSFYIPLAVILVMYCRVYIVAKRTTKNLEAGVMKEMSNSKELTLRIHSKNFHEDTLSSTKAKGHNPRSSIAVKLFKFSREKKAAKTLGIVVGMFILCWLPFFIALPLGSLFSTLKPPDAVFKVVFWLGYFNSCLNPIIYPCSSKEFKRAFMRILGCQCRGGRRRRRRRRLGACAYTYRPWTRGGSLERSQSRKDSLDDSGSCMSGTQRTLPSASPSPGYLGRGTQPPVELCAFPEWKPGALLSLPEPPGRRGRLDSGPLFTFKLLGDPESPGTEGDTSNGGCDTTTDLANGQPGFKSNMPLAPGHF
T1 sequence (P23944 whole entry): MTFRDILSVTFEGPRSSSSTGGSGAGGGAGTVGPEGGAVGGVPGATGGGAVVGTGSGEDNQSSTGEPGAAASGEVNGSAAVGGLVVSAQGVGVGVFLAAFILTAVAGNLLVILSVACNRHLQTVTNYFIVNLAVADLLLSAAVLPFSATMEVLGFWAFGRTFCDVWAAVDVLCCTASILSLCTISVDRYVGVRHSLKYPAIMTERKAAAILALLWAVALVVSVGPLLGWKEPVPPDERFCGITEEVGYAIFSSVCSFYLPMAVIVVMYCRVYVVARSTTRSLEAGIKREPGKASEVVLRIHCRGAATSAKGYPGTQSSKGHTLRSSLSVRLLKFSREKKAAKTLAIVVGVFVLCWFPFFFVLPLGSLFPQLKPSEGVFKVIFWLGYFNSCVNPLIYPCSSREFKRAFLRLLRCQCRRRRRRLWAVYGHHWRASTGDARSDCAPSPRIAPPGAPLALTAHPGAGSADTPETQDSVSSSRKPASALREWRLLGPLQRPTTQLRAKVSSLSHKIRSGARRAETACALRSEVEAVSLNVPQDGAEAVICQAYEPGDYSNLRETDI
T1 sequence (P43140 whole entry): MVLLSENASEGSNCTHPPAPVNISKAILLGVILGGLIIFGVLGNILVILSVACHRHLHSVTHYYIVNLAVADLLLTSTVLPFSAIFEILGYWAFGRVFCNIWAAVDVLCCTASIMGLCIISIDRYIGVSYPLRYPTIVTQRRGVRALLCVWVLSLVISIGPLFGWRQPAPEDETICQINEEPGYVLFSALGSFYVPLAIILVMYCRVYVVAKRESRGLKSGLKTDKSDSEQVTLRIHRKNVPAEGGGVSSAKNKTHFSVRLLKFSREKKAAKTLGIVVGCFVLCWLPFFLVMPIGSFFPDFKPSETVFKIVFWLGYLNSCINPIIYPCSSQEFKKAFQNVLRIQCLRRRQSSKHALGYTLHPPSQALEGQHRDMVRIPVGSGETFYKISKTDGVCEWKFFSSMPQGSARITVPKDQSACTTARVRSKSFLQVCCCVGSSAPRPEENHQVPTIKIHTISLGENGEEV
Briefly: Inhibition of Alpha-1 adrenergic receptor in rat cortex membrane. It counts as cell membranes.
Regarding `COc1cc2nc(N3CCN(C(=O)c4ccccc4)CC3)nc(N)c2cc1OC`, the IC50 amounted to 4.6 nM.

As to `COc1cc2nc(N3CCN(C(=O)C(C)(C)C)CC3)nc(N)c2cc1OC`, the IC50 is listed as 340 nM.

On to `COc1cc2nc(N3CCC(c4ccccc4)(c4ccccc4)CC3)nc(N)c2cc1OC`, for which the IC50 is on record as 259 nM. The IC50 values of the last two molecules are within 1.5-fold of each other.

Take `COc1cc2nc(N(C)CCC(c3ccccc3)c3ccccc3)nc(N)c2cc1OC`: the IC50 is recorded as 85 nM.

In turn, `COc1cc2nc(N[C@H](C)Cc3ccc(OC)c(S(N)(=O)=O)c3)nc(N)c2cc1OC` gave an IC50 of 3140 nM. Compared with the last molecule, the IC50 is about 37-fold higher.

For the molecule `COc1cc2nc(N3CC[N+]([O-])(Cc4ccccc4)CC3)nc(N)c2cc1OC`, the IC50 was > 1000 nM.

`COc1cc2nc(N3CCN(C(c4ccccc4)c4ccccc4)CC3)nc(N)c2cc1OC`: the IC50 stood at 40 nM.

For the molecule `COc1cc2nc(N3CCN(C(C)=O)CC3)nc(N)c2cc1OC`, the IC50 is 45 nM.

In a further assay the target is 5-hydroxytryptamine receptor 2A (Rattus norvegicus, UniProt P14842). Briefly: Inhibitory concentration against 5-hydroxytryptamine 2A receptor (Inactive at >1000 nM concentration).
Sequence of 5-hydroxytryptamine receptor 2A (P14842 whole entry): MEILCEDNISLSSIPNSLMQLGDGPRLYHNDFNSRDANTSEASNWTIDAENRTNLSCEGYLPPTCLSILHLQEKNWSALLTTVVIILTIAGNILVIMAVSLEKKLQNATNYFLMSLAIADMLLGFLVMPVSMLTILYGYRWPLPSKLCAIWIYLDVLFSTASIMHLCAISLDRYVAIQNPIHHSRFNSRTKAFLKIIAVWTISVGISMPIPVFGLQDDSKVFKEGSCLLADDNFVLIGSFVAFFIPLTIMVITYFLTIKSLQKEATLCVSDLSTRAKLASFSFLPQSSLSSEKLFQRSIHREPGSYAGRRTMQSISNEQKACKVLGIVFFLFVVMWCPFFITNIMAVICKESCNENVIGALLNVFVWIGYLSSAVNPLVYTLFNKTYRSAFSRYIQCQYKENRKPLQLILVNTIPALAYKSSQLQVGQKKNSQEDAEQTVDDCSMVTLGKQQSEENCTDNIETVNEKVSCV
As for `COc1cc2nc(N3CCN(C(=O)c4ccccc4)CC3)nc(N)c2cc1OC`, the 50% inhibitory concentration (IC50) is > 1000 nM.

As for `COc1cc2nc(N3CCN(C(=O)C(C)(C)C)CC3)nc(N)c2cc1OC`, the IC50 was > 1000 nM.

With `COc1cc2nc(N3CCC(c4ccccc4)(c4ccccc4)CC3)nc(N)c2cc1OC`, the IC50 was > 1000 nM.

For `COc1cc2nc(N(C)CCC(c3ccccc3)c3ccccc3)nc(N)c2cc1OC`, the IC50 is > 1000 nM.

For the molecule `COc1cc2nc(N[C@H](C)Cc3ccc(OC)c(S(N)(=O)=O)c3)nc(N)c2cc1OC`, the IC50 was > 1000 nM.

On to `COc1cc2nc(N3CC[N+]([O-])(Cc4ccccc4)CC3)nc(N)c2cc1OC`, for which the IC50 is > 1000 nM.

Regarding `COc1cc2nc(N3CCN(C(c4ccccc4)c4ccccc4)CC3)nc(N)c2cc1OC`, the half-inhibitory concentration (IC50) is > 1000 nM.

Regarding `COc1cc2nc(N3CCN(C(C)=O)CC3)nc(N)c2cc1OC`, the concentration for half-maximal inhibition (IC50) was > 1000 nM.

Another assay concerns the target T2, Adrenergic receptor alpha-2 (Rattus norvegicus, UniProt P22086+P19328+P22909).
T2 sequence (P22086 whole entry): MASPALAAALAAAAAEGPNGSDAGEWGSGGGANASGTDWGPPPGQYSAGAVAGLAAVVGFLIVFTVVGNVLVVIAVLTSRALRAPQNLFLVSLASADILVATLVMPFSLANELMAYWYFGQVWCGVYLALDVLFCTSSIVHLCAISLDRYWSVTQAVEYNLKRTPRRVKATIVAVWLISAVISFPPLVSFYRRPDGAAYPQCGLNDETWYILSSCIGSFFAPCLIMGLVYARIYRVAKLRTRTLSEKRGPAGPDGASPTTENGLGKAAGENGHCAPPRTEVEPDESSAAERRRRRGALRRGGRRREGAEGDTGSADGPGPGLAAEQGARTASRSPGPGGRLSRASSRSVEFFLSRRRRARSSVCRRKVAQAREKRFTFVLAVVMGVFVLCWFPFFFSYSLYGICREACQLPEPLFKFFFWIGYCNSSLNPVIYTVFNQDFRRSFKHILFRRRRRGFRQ
T2 sequence (P19328 whole entry): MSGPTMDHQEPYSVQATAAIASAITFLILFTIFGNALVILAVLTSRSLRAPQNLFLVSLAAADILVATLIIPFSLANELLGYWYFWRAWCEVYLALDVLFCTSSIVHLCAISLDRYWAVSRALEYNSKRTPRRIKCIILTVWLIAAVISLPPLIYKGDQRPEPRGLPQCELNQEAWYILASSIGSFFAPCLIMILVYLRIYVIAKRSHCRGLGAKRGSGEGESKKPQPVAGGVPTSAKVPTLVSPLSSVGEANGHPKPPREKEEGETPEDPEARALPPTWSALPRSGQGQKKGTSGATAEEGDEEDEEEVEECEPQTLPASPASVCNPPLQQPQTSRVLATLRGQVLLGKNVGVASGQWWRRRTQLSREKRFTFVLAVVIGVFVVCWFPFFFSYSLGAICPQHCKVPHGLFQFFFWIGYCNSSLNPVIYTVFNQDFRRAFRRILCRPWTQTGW
T2 sequence (P22909 whole entry): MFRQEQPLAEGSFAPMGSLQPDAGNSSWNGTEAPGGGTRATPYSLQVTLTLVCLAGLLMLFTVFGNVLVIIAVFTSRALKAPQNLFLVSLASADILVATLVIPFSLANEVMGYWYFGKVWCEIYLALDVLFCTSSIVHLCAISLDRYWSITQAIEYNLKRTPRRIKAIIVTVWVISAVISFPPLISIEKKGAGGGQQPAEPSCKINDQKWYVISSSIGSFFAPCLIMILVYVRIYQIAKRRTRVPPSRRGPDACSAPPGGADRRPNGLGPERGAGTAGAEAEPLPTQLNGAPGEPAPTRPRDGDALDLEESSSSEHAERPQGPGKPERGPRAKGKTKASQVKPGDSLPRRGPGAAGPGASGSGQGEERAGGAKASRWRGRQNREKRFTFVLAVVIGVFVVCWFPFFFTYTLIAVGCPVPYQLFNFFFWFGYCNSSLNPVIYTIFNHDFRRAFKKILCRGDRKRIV
Description: Inhibitory concentration against Alpha-2 adrenergic receptor. The assay is classed as protein assay.
`COc1cc2nc(N3CCN(C(=O)c4ccccc4)CC3)nc(N)c2cc1OC`: the IC50 is given as > 1000 nM.

On to `COc1cc2nc(N3CCN(C(=O)C(C)(C)C)CC3)nc(N)c2cc1OC`, for which the IC50 is > 1000 nM.

As to `COc1cc2nc(N3CCC(c4ccccc4)(c4ccccc4)CC3)nc(N)c2cc1OC`, the half-inhibitory concentration (IC50) is reported as > 1000 nM.

`COc1cc2nc(N(C)CCC(c3ccccc3)c3ccccc3)nc(N)c2cc1OC`: the IC50 is > 1000 nM.

On to `COc1cc2nc(N[C@H](C)Cc3ccc(OC)c(S(N)(=O)=O)c3)nc(N)c2cc1OC`, for which the IC50 is > 1000 nM.

Turning to `COc1cc2nc(N3CC[N+]([O-])(Cc4ccccc4)CC3)nc(N)c2cc1OC`, the IC50 is recorded as > 1000 nM.

With `COc1cc2nc(N3CCN(C(c4ccccc4)c4ccccc4)CC3)nc(N)c2cc1OC`, the IC50 is > 1000 nM.

For `COc1cc2nc(N3CCN(C(C)=O)CC3)nc(N)c2cc1OC`, the concentration for half-maximal inhibition (IC50) was > 1000 nM.

Another assay addresses T3, 5-hydroxytryptamine receptor 1A (Rattus norvegicus, UniProt P19327).
T3 sequence (P19327 whole entry): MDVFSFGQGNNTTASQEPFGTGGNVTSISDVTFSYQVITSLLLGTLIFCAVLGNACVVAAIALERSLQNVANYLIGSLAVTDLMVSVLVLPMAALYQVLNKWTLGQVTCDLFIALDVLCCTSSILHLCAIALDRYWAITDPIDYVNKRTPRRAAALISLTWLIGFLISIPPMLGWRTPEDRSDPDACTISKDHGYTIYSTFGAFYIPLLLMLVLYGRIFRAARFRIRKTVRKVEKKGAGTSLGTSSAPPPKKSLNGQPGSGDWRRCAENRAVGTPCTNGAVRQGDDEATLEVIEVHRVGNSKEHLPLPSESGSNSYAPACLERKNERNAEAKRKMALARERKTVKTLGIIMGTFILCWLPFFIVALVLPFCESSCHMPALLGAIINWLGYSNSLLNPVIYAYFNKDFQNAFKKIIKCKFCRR
Description: Inhibitory concentration against 5-hydroxytryptamine 1A receptor (Inactive at >1000 nM concentration).
For `COc1cc2nc(N3CCN(C(=O)c4ccccc4)CC3)nc(N)c2cc1OC`, the IC50 was > 1000 nM.

In the case of `COc1cc2nc(N3CCN(C(=O)C(C)(C)C)CC3)nc(N)c2cc1OC`, the IC50 is > 1000 nM.

With `COc1cc2nc(N3CCC(c4ccccc4)(c4ccccc4)CC3)nc(N)c2cc1OC`, the IC50 is > 1000 nM.

Turning to `COc1cc2nc(N(C)CCC(c3ccccc3)c3ccccc3)nc(N)c2cc1OC`, the IC50 was > 1000 nM.

As for `COc1cc2nc(N[C@H](C)Cc3ccc(OC)c(S(N)(=O)=O)c3)nc(N)c2cc1OC`, the IC50 was > 1000 nM.

Turning to `COc1cc2nc(N3CC[N+]([O-])(Cc4ccccc4)CC3)nc(N)c2cc1OC`, the IC50 is > 1000 nM.

In the case of `COc1cc2nc(N3CCN(C(c4ccccc4)c4ccccc4)CC3)nc(N)c2cc1OC`, the IC50 is > 1000 nM.

As for `COc1cc2nc(N3CCN(C(C)=O)CC3)nc(N)c2cc1OC`, the IC50 was > 1000 nM.

The record behind these values is ChEMBL document CHEMBL1132568, “Synthesis, pharmacological evaluation, and structure-activity relationship and quantitative structure-activity relationship studies on novel derivatives of 2,4-diamino-6,7-dimethoxyquinazoline alpha1-adrenoceptor antagonists” (J Med Chem, 1999).
